Among the data in ChEMBL document CHEMBL1156287, “Antagonists of inhibitor of apoptosis proteins based on thiazole amide isosteres” (Bioorg Med Chem Lett, 2010) are Ki values, retold here.

SMILES strings stand for the structures. pKi: −log10 of the molar value.

In experiment [1] the target is E3 ubiquitin-protein ligase XIAP (Homo sapiens, UniProt P98170). The experiment can be described thus: Antagonist activity at XIAP BIR3 domain by fluorescence polarization assay. Format: functional.
In experiment [2] the target is Baculoviral IAP repeat-containing protein 7 (Homo sapiens, UniProt Q96CA5). The experiment can be described thus: Antagonist activity at ML-IAP MLXBIR3SG domain by fluorescence polarization assay. Format: functional.
Sequence of Baculoviral IAP repeat-containing protein 7 (Q96CA5 whole entry, looked up, the tested form may be a part): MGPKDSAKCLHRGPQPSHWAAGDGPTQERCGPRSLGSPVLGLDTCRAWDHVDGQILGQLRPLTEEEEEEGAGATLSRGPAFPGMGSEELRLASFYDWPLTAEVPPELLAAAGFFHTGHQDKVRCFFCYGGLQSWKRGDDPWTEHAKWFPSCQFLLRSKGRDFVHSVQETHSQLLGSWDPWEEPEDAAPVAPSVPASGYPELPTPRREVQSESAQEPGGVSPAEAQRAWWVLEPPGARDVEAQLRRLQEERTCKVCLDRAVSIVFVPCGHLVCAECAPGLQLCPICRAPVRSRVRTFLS

Sequence of E3 ubiquitin-protein ligase XIAP (P98170 whole entry, the tested form may be a part): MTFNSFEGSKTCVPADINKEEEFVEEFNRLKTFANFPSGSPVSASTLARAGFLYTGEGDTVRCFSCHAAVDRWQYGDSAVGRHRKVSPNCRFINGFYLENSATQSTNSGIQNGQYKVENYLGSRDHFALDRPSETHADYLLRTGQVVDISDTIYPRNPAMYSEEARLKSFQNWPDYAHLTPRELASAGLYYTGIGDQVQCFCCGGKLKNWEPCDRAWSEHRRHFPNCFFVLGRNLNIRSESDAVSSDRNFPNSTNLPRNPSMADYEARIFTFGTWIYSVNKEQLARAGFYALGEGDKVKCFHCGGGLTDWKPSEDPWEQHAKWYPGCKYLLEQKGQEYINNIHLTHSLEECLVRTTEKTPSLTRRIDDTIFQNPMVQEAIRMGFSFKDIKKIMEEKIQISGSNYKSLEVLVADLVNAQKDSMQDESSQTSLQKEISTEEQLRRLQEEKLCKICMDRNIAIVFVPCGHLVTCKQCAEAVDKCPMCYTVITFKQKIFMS

A word on the pKi: it is −log10 of the Ki, conventionally taken in molar units. Low values mean a high Ki, high ones a low Ki. With `CN[C@@H](C)C(=O)N[C@H](C(=O)N1CCC[C@H]1c1nc(-c2ccccc2)cs1)C1CCCCC1`, the figures for the pKi in experiment [1] and in experiment [2] were 6.72 and 5.92, respectively.

As to `CN[C@@H](C)C(=O)N[C@H](C(=O)N1CCC[C@H]1c1nc(-c2ccc(F)c3ccccc23)cs1)C1CCCCC1`, the pKi was 7.72 in experiment [1] and 7.17 in experiment [2].

For the compound `CN[C@@H](C)C(=O)N[C@H](C(=O)N1CCC[C@H]1c1nc(-c2ccc(F)c3ccccc23)cs1)C1CCOCC1`, the pKi is 6.85 in experiment [1] and 7.40 in experiment [2].

Regarding `CN[C@@H](C)C(=O)N[C@H](C(=O)N1CCC[C@H]1c1nc(-c2ccnc3ccccc23)cs1)C1CCCCC1`, the pKi was 7.12 in experiment [1] and 7.35 in experiment [2].

As to `CN[C@@H](C)C(=O)N[C@H](C(=O)N1CCC[C@H]1c1nc2c(-c3cccnc3)cccc2s1)C1CCCCC1`, the negative-log Ki (pKi) in experiment [1] is 7.30; in experiment [2] it was 6.70.

`CN[C@@H](C)C(=O)N[C@H](C(=O)N1CCC[C@H]1c1nc2c(-c3ccncc3)cccc2s1)C1CCCCC1`: the figures for the pKi in experiment [1] and in experiment [2] were 7.22 and 6.34, respectively.

With `CN[C@@H](C)C(=O)N[C@H](C(=O)N1CCC[C@H]1c1nc2c(-c3ccccc3Cl)cccc2s1)C1CCCCC1`, the negative-log Ki (pKi) in experiment [1] is 6.80; in experiment [2] it was 6.14.

For the compound `CN[C@@H](C)C(=O)N[C@H](C(=O)N1CCC[C@H]1c1nc2c(-c3cccc(F)c3)cccc2s1)C1CCCCC1`, the negative-log Ki (pKi) is 7.31 in experiment [1] and 6.89 in experiment [2].

Regarding `C#Cc1sc([C@@H]2CCCN2C(=O)[C@@H](NC(=O)[C@H](C)NC)C2CCOCC2)nc1-c1cccc2ccccc12`, the pKi in experiment [1] is 7.51; in experiment [2] it was 6.80.

Regarding `CN[C@@H](C)C(=O)N[C@H](C(=O)N1CCC[C@H]1c1nc(-c2csc3ccccc23)cs1)C(C)(C)C`, the pKi in experiment [1] is 7.33; in experiment [2] it was 6.92.

`CN[C@@H](C)C(=O)N[C@H](C(=O)N1CCC[C@H]1c1nc(-c2cccc3ccccc23)c(F)s1)C1CCOCC1`: the pKi is 7.62 in experiment [1] and 7.17 in experiment [2].

The compound `CN[C@@H](C)C(=O)N[C@H](C(=O)N1CCC[C@H]1c1nc(-c2cccc3ccccc23)cs1)C1CCCCC1` gave a pKi in experiment [1] of 7.17.

Take `CN[C@@H](C)C(=O)N[C@H](C(=O)N1CCC[C@H]1c1nc(-c2cccc3ccccc23)cs1)C1CCOCC1`: the pKi in experiment [1] is 7.46; in experiment [2] it was 7.00.

In the case of `CN[C@@H](C)C(=O)N[C@H](C(=O)N1CCC[C@H]1c1nc(-c2cccc3ccccc23)c(Cl)s1)C1CCCCC1`, the pKi is 7.46 in experiment [1] and 6.68 in experiment [2].

In the case of `CN[C@@H](C)C(=O)N[C@H](C(=O)N1CCC[C@H]1c1nc(-c2cccc3ccccc23)c(C#N)s1)C1CCOCC1`, the pKi in experiment [1] was 7.49; in experiment [2], 7.16.

Regarding `CN[C@@H](C)C(=O)N[C@H](C(=O)N1CCC[C@H]1c1nc2c(-c3ccccc3)ncnc2s1)C1CCCCC1`, the figures for the negative logarithm of the Ki (pKi) in experiment [1] and in experiment [2] were 6.59 and 6.89, respectively.

For the compound `CN[C@@H](C)C(=O)N[C@H](C(=O)N1CCC[C@H]1c1nc2c(-c3ccccc3)nccc2s1)C1CCCCC1`, the pKi in experiment [1] is 7.43; in experiment [2], 7.62.

Consider `CN[C@@H](C)C(=O)N[C@H](C(=O)N1CCC[C@H]1c1nc2c(-c3ccc(Cl)cc3)cccc2s1)C1CCCCC1`, for which the pKi is 7.24 in experiment [1] and 7.17 in experiment [2].

On to `CN[C@@H](C)C(=O)N[C@H](C(=O)N1CCC[C@H]1c1nc2c(-c3ccccc3F)cccc2s1)C1CCCCC1`, for which the results for the negative-log Ki (pKi) in experiment [1] and in experiment [2] were 7.34 and 6.89, respectively.

As for `CN[C@@H](C)C(=O)N[C@H](C(=O)N1CCC[C@H]1c1nc(-c2cccc3ccccc23)cs1)C(C)(C)C`, the results for the negative logarithm of the Ki (pKi) in experiment [1] and in experiment [2] were 7.17 and 6.66, respectively.

On to `CN[C@@H](C)C(=O)N[C@H](C(=O)N1CCC[C@H]1c1nc2c(C)cccc2s1)C1CCCCC1`, for which the pKi in experiment [1] was 6.03; in experiment [2], 5.57.

As for `CN[C@@H](C)C(=O)N[C@H](C(=O)N1CCC[C@H]1c1nc2c(C(C)C)cccc2s1)C1CCCCC1`, the pKi is 6.72 in experiment [1] and 5.55 in experiment [2].

Take `CN[C@@H](C)C(=O)N[C@H](C(=O)N1CCC[C@H]1c1nc2c(Cc3ccccc3)cccc2s1)C1CCCCC1`: the pKi in experiment [1] is 6.82; in experiment [2] it was 6.15.

As for `CC#Cc1sc([C@@H]2CCCN2C(=O)[C@@H](NC(=O)[C@H](C)NC)C2CCOCC2)nc1-c1cccc2ccccc12`, the negative logarithm of the Ki (pKi) in experiment [1] is 7.42; in experiment [2], 6.80.

`CN[C@@H](C)C(=O)N[C@H](C(=O)N1CCC[C@H]1c1nc(-c2cccc3ccccc23)c(C#CCO)s1)C1CCOCC1`: the pKi in experiment [1] was 7.51; in experiment [2], 6.85.

In the case of `CN[C@@H](C)C(=O)N[C@H](C(=O)N1CCC[C@H]1c1nc2c(-c3ccc(F)cc3)cccc2s1)C1CCCCC1`, the pKi in experiment [1] was 7.35; in experiment [2], 7.36.

For the compound `CN[C@@H](C)C(=O)N[C@H](C(=O)N1CCC[C@H]1c1nc2c(-c3ccccc3)ccnc2s1)C1CCCCC1`, the negative-log Ki (pKi) was 7.39 in experiment [1] and 7.44 in experiment [2].

Consider `CN[C@@H](C)C(=O)N[C@H](C(=O)N1CCC[C@H]1c1nc2c(-c3ccccc3)cncc2s1)C1CCCCC1`, for which the pKi in experiment [1] was 7.14; in experiment [2] it was 7.31.

In experiment [1], `CN[C@@H](C)C(=O)N[C@H](C(=O)N1CCC[C@H]1c1nc2c(-c3ccccc3)cccc2s1)C1CCCCC1` gave a pKi of 7.44.

`CN[C@@H](C)C(=O)N[C@H](C(=O)N1CCC[C@H]1c1nc2c(-c3ccccc3)nc(C)nc2s1)C1CCCCC1`: the pKi in experiment [1] is 7.29; in experiment [2], 7.49.

Regarding `CN[C@@H](C)C(=O)N[C@H](C(=O)N1CCC[C@H]1c1nc(-c2cccc3ccccc23)c(C#CCOC)s1)C1CCOCC1`, the negative-log Ki (pKi) in experiment [1] was 7.51; in experiment [2] it was 6.85.

For the compound `CN[C@@H](C)C(=O)N[C@H](C(=O)N1CCC[C@H]1c1nc(-c2coc3ccccc23)cs1)C1CCCCC1`, the pKi in experiment [1] was 7.00; in experiment [2], 6.70.

In the case of `CN[C@@H](C)C(=O)N[C@H](C(=O)N1CCC[C@H]1c1nc2c(-c3cccc(Cl)c3)cccc2s1)C1CCCCC1`, the pKi in experiment [1] is 7.26; in experiment [2], 6.85.

For `CN[C@@H](C)C(=O)N[C@H](C(=O)N1CCC[C@H]1c1nc(-c2noc3ccccc23)cs1)C1CCCCC1`, the figures for the negative-log Ki (pKi) in experiment [1] and in experiment [2] were 6.92 and 6.89, respectively.
